Test results taken from PMC7382147, “An effective UFLC–MS/MS method used to study pharmacokinetics of major constituents of Fukeqianjin formula in rat plasma” (Chinese Medicine, 2020).
Like-named read-outs stand apart in the source and are kept apart here.

Legend:
[1] = Pharmacokinetic study in rat plasma after oral administration of FKQJF extract (UFLC–MS/MS); assay type: in vivo, Sprague-Dawley (SD) rats; conditions: for AUC(0-inf) / AUC(0-t) / Cmax / half-life / MRT last / MRT inf / Tmax: oral FKQJF extract, single dose 3.2 g/kg, mean ± SD; for MRT last: read-out: MRT0→t; for MRT inf: read-out: MRT0→∞
Experimental: (§1) Aliquots of 100 μL plasma samples were mixed with 10 μL I.S. samples (1 μg/mL, in MeOH), then added with 500 μL ACN, respectively, and vortexed for 5 min, centrifugated at 10,000 rpm for 10 min, the supernatants were transferred into clean vials and dried in a vacuum centrifugal concentrator at 1200 rpm, 37 °C. After that, 100 μL ACN was added and ultrasonic (frequency 40 kHz, power 250 W) extracted for 5 min to dissolve the dry residue, vortexed for 1 min and centrifugated at 10,000 rpm for 5 min, 1 μL of each final supernatant was injected into UFLC–MS/MS for analysis.
An 8050 UFLC–MS/MS system equipped with LC-30A binary pump, a SIL-30AC autosampler, a SPD-M30A PDA detector, a CTO-20AC column oven, and a 8050 triple quadrupole mass spectrometer with an electrospray ionization source (ESI) was applied to detect and quantify FKQJF compounds in plasma samples. Data were acquired and processed with the software LabSolution (Ver. 5.6).
A Kinetex XB-C18 HPLC column (100 × 2.1 mm, 2.6 μm) linked with an equivalent guard column was used for chromatographic separation. The aqueous phase contained 0.2% formic acid was used as mobile phase A, and organic phase ACN as mobile phase B. The gradient elution method using in this program was: 3–5 min, 28–31% B; 5–7 min, 31–34% B; 7–9 min, 34–65% B; 9–10 min, 65–95% B; 10–11.5 min, 95% B. The flow rate of mobile phase, column temperature and autosampler temperature was 0.4 mL/min, 30 °C and 4 °C, respectively. The injection volume of each sample was set as 1 μL. The main MS spectrum parameters were set as follows: the flow rate of drying gas (N2) was 10.0 L/min; the atomized gas was 3.0 L/min and the heating gas flow rate was 10.0 L/min. The main temperatures of interface, desolvation and heat block was 300 °C, 250 °C and 400 °C, respectively. And, the interface and detector voltage were 3 kV and 1.8 kV.
Rats were divided into a blank group and a FKQJF administration group (6 rats for each), and fasted for 24 h. Each rat of the administration group was given FKQJF extract suspension at a single dose of 3.2 g FKQJF/kg body weight through oral administration in parallel. Blood samples (0.25 mL) were gathered from the orbital venous plexus of each rat, with FKQJF group gathered at 14 serial timepoints (6 rats for each) as 0.083 h, 0.16 h, 0.33 h, 0.5 h, 0.75 h, 1.0 h, 1.5 h, 2 h, 3 h, 4 h, 6 h, 8 h, 12 h and 24 h after drug administration. The blood samples were centrifugated at 6000g for 10 min to isolate plasma and stored at − 20 °C for further analysis.
Data were analyzed using the Drug and Statistics (DAS) Software version 2.0 (DAS 2.0, Mathematical Pharmacology Professional Committee of China, Shanghai, China). The non-compartmental mode was applied to obtain the following PK parameters: area under the plasma concentration–time curve from time zero to the time of last quantifiable concentration (AUC0→t) and area under the plasma concentration–time curve to time infinity (AUC0→∞), the elimination half-life (t1/2), mean retention time to last sampling time (MRT0→t) and mean retention time to infinity (MRT0→∞). The maximum plasma concentration (Cmax) and the time to maximum concentration (Tmax) were observed directly from the concentration–time (C–T) curves and measured data. All data are presented as mean ± SD.

[2] = Long-term stability of QC samples (−20 °C for 20 days); assay type: physicochemical, rat; conditions: plasma QC
Experimental: as §1
(§2) Six replicates of low, medium and high concentrations of quality control (QC) samples were used to verify the stabilities under different conditions including: place at room temperature for 8 h, freeze (− 20 °C) and thaw for three times, and store at − 20 °C for 20 days.

[3] = Ordinary stability of QC samples (room temperature for 8 h); assay type: physicochemical, rat; conditions: plasma QC, room temperature 8 h
Experimental: as §1, §2

[4] = Freeze–thaw stability of QC samples (−20 °C, three times); assay type: physicochemical, rat; conditions: plasma QC, freeze (−20 °C) and thaw three times
Experimental: as §1, §2

[5] = oral FKQJF extract 3.2 g/kg, post dose

Compound | AUC(0-inf) ([1]; Sprague-Dawley) [ng·h/mL] | AUC(0-t) ([1]; Sprague-Dawley) [ng·h/mL] | Cmax ([1]; Sprague-Dawley) [ng/mL] | half-life ([1]; Sprague-Dawley) [h] | MRT last ([1]; Sprague-Dawley) [h] | MRT inf ([1]; Sprague-Dawley) [h] | Long-term stability Mean ([2]; spiked 50 ng/mL) [%] | Long-term stability Mean ([2]; spiked 250 ng/mL) [%] | Long-term stability Mean ([2]; spiked 500 ng/mL) [%] | Ordinary stability Mean ([3]; spiked 50 ng/mL) [%] | Ordinary stability Mean ([3]; spiked 250 ng/mL) [%] | Ordinary stability Mean ([3]; spiked 500 ng/mL) [%] | Freeze–thaw stability Mean ([4]; spiked 50 ng/mL) [%] | Freeze–thaw stability Mean ([4]; spiked 250 ng/mL) [%] | Freeze–thaw stability Mean ([4]; spiked 500 ng/mL) [%] | Tmax ([1]; Sprague-Dawley, read-out: Tmax) [h] | shape of the plasma concentration–time curve ([1]; oral FKQJF extract 3.2 g/kg) | Long-term stability Mean ([2]; spiked 300 ng/mL) [%] | Ordinary stability Mean ([3]; spiked 300 ng/mL) [%] | Freeze–thaw stability Mean ([4]; spiked 300 ng/mL) [%] | other results
O=C1C[C@@H](c2ccc(O)cc2)Oc2cc(O)cc(O)c21 [Analyte 14, naringenin] | 206 ± 58.7 | 144 ± 16.5 | 67.7 ± 27.6 | 12.1 ± 9.32 | 6.67 ± 1.42 | 17 ± 8.17 | 91.66 | 103.10 | 99.51 | 80.39 | 92.68 | 101.11 | 88.34 | 116.86 | 84.71 | – | – | – | – | – | Tmax [1]: 2.00 ± 0.00 h
C=C1CC[C@@H]2[C@](C)(CO)[C@H](O)CC[C@@]2(C)[C@@H]1/C=C/C1=CCOC1=O [Analyte 15, 14-deoxy-11,12-didehydro-andrographolide] | 81.1 ± 19.4 | 74.3 ± 17.5 | 47.7 ± 5.92 | 1.2 ± 0.74 | 2.21 ± 0.48 | 3.05 ± 1.01 | – | – | – | – | – | – | – | – | – | 1.42 ± 0.63 | double-peaks | 98.43 | 119.43 | 105.94 | time of first peak of the concentration–time curve [1, 5]: 0 to 1 h; time of second peak of the concentration–time curve [1, 5]: 1.5 to 3 h; Long-term stability Mean ([2]; spiked 60 ng/mL): 100.55%; Long-term stability Mean ([2]; spiked 600 ng/mL): 88.35%; Ordinary stability Mean ([3]; spiked 60 ng/mL): 89.92%; Ordinary stability Mean ([3]; spiked 600 ng/mL): 82.90%; Freeze–thaw stability Mean ([4]; spiked 60 ng/mL): 114.11%; Freeze–thaw stability Mean ([4]; spiked 600 ng/mL): 118.41%
COc1ccccc1-c1cc(=O)c2c(O)cc(OC)c(OC)c2o1 [Analyte 16, panicolin] | 251 ± 97.6 | 177 ± 17.1 | 31.4 ± 6.94 | 12.6 ± 12.7 | 8.68 ± 1.17 | 20.1 ± 5.01 | 105.80 | 89.82 | 95.48 | 83.35 | 92.98 | 88.55 | 105.76 | 108.03 | 95.34 | 2 | double-peaks | – | – | – | –
C=C1CC[C@@H]2[C@](C)(CO)CCC[C@@]2(C)[C@@H]1CCC1=CCOC1=O [Analyte 17, andrograpanin] | 179 ± 14.3 | 161 ± 12.7 | 19.2 ± 2.48 | 5.98 ± 0.4 | 7.3 ± 0.38 | 9.82 ± 0.45 | – | – | – | – | – | – | – | – | – | 3.33 ± 2.31 | double-peaks | 90.66 | 117.99 | 86.68 | Long-term stability Mean ([2]; spiked 60 ng/mL): 87.43%; Long-term stability Mean ([2]; spiked 600 ng/mL): 117.51%; Ordinary stability Mean ([3]; spiked 60 ng/mL): 81.80%; Ordinary stability Mean ([3]; spiked 600 ng/mL): 89.06%; Freeze–thaw stability Mean ([4]; spiked 60 ng/mL): 82.73%; Freeze–thaw stability Mean ([4]; spiked 600 ng/mL): 115.83%
CCC/C=C1\OC(=O)C2=C1CCC=C2 [Analyte 18, Z-ligustilide] | 194 ± 27.9 | 74.7 ± 8.31 | 10.2 ± 0.58 | 33.6 ± 27.1 | 9.85 ± 0.85 | 48.2 ± 39.8 | – | – | – | – | – | – | – | – | – | 1.83 ± 0.29 | double-peaks | – | – | – | Long-term stability Mean ([2]; spiked 20 ng/mL): 114.56%; Long-term stability Mean ([2]; spiked 200 ng/mL): 86.82%; Long-term stability Mean ([2]; spiked 400 ng/mL): 118.76%; Ordinary stability Mean ([3]; spiked 20 ng/mL): 107.46%; Ordinary stability Mean ([3]; spiked 200 ng/mL): 86.65%; Ordinary stability Mean ([3]; spiked 400 ng/mL): 106.31%; Freeze–thaw stability Mean ([4]; spiked 20 ng/mL): 88.16%; Freeze–thaw stability Mean ([4]; spiked 200 ng/mL): 112.10%; Freeze–thaw stability Mean ([4]; spiked 400 ng/mL): 104.63%
COc1cc(O)c2c(=O)cc(-c3ccccc3)oc2c1OC [Analyte 19, 7-O-methylwogonin] | 252 ± 62.5 | 249 ± 65.5 | 169 ± 73.5 | 1.1 ± 0.47 | 2.44 ± 0.12 | 2.55 ± 0.21 | – | – | – | – | – | – | – | – | – | 2 | – | 85.96 | 96.04 | 94.97 | Long-term stability Mean ([2]; spiked 10 ng/mL): 116.14%; Long-term stability Mean ([2]; spiked 150 ng/mL): 84.29%; Ordinary stability Mean ([3]; spiked 10 ng/mL): 96.33%; Ordinary stability Mean ([3]; spiked 150 ng/mL): 80.66%; Freeze–thaw stability Mean ([4]; spiked 10 ng/mL): 103.66%; Freeze–thaw stability Mean ([4]; spiked 150 ng/mL): 111.86%
